# Patent US20140228423A1, “BIOMARKERS AND THERAPY FOR CANCER” (BAYLOR COLLEGE OF MEDICINE, priority 2011, published 2014)
# Columns and labels:
# OVCAR8 cells = assay: High-throughput screen of Prestwick Chemical Library with or without YM155
# Method: High-throughput screen for drugs that synergize with YM155. […] Digitonin (0.8 mg/ml) was used as a positive control for ˜100% cell death. […] The relative synergy for each drug was then calculated by subtracting measured cell survival of combinatorial treatment from the calculated c value.
# To identify additional small molecules that synergize with YM155, a small library screen was performed.
# [1] = test system: Dicer-Pten DKO mouse cancer cell lines; assay: Cell viability (CellTiter-Glo) of Dicer-Pten DKO mouse cancer cell lines after miRNA mimic transfection or everolimus; assay type: cell-based; settings: for sensitivity of cells (anti-proliferative, secondary to G1 arrest, and pro-apoptotic effects): Dicer/Pten double null line from primary mouse serous cancer, everolimus 0.8 uM, 48 h, alone and in combination; for cell viability and proliferation after miR-34c mimic delivery: mouse and human serous cancer cell lines (three PTEN/DICER DKO lines, OVCAR8)
# Method: FIG. 4. Activation of the PI3K pathway in Dicer/Pten DKO mice and effects of mir34c and everolimus on a Dicer/Pten DKO cell line. A, Western blot analysis of DKO fallopian tube tumors showing activation of AKT signaling compared with control fallopian tubes. B, A Dicer/Pten DKO cell line was transfected with miR-34c mimic or a control (miR-Ctrl), treated with everolimus (0.8 uM) or without (DMSO), and examined 48 h later for the effects on cell viability.
# To functionally evaluate the roles of miR34c and the mTOR inhibitor everolimus in serous cancers, the inventors first generated 32 cell lines from primary cancers (5 lines), metastatic lesions (11 lines), and ascites fluid (16 lines) of independent Dicer/Pten DKO mice. The effects were analyzed of everolimus and miR-34c mimic alone and in combination on a confirmed Dicer/Pten double null cell line derived from a primary mouse serous cancer. […] Based on the studies, there are the following considerations: 1) MiR-34c and additional miRNAs function to suppress the development of high grade serous carcinomas and the […], and/or 2) Simultaneous pharmacological targeting of mTOR and pathways downstream of miR-34c and other miRNAs leads to therapies to eradicate high-grade serous carcinomas.
# Dicer-Pten DKO mouse cancer cell line DKO-1 were transfected with various miRNA mimics including miR-31, miR-100, let-7b, miR-34c or a miRNA control (miR-Ctrl). Cell viability was measured by ATP quantitation-based CellTiter-Glo assay 48 hours after transfection.
# (§1) FIG. 13A is a cell viability assay. Dicer-Pten DKO mouse cancer cell lines were transfected with miR-34c followed by cell viability assay in 48 hours using CellTiter-Glo assay. FIG. 13B is cell cycle analysis. Forty-eight hours after miR-34c transfection, Dicer-Pten DKO mouse cancer cell lines were fixed in cold 70% ethanol and stained with PI. Cell cycle profiles were determined by flow cytometry and analyzed by flowjo.
# [2] = test system: mouse serous cancer cell lines and the human serous cancer line OVCAR8; assay: Treatment of serous cancer cell lines with YM155 or everolimus; assay type: cell-based
# Source text: Well-known as an apoptosis inhibitor, survivin has been identified to contribute to nearly every aspect of cancer from onset to outcome (Altieri, 2008; Martinelli et al., 2006). Nearly all serous, endometrioid, and poorly-differentiated ovarian cancers express surviving (Cohen et al., 2003), the levels of survivin correlate with poor prognostic parameters (Cohen et al., 2003), high levels of survivin are associated with taxol/platinum resistance (Zaffaroni et al., 2002), and women with PTEN-negative/survivin-positive ovarian cancers have the worst prognosis (Sui et al., 2006). […] Based on these findings, the inventors treated mouse serous cancer cell lines and the human serous cancer line OVCAR8 with YM155 or everolimus, an inhibitor of mTOR (FIG. 5A, B). […] These findings indicate that YM155 and everolimus can be used to identify small molecules that synergize with the compounds to eradicate high-grade serous carcinomas in women.
# [3] = test system: PTEN/DICER DKO primary serous cancer cell lines; assay: Microarray analysis (QPCR follow-up) of gene expression after miR-34c mimic transfection; assay type: cell-based, mouse
# Method: To characterize the roles of miR-34c in regulating major cancer and cell cycle pathways, mimics were transfected into three independent PTEN/DICER DKO primary serous cancer cell lines and the human OVCAR8 serous cancer cell line and assayed for cell viability and cell proliferation (FIG. 5C, D) and microarray analysis was performed, with followup QPCR confirmation. […] The effects were examined of miR-34c on major pathway genes that contain miR-34c binding sites in their 3′UTR sequences as well as pathways in which these proteins lie. […] These findings are especially relevant to cancer treatment since mutations in TOP2A are associated with drug resistance, and TOP2A is the target for several chemotherapeutic agents.
# OVCAR8 = assay: Lentiviral expression of miR-34c in OVCAR8: proliferation (CellTiter-Glo) and cell cycle (PI flow cytometry); assay type: cell-based, human
# Method: FIG. 10. Drug and miRNA mimic effects on ovarian cancer cell viability (A-C) and proliferation (D). OVCAR8 cancer cells were incubated for 48 hours in the presence of YM155 (A) or everolimus (B) and assayed for cell viability. C. Three independent PTEN/DICER DKO mouse serous carcinoma cell lines were transfected with miRNA control (miR-Ctrl) or miR-34c mimics and assayed for cell viability 48 hours later. D. OVCAR8 cells were infected with lentivirus expressing miR-Ctrl or miR-34c and assayed for cell number. *, P<0.05; **, P<0.005; ***, P<0.0005
# In FIG. 16A, OVCAR8 infected with miR-34c or control lentivirus were seeded onto 96-well plates for proliferation assay measured by CellTiter-Glo assay. In FIG. 16B, five days after miR-34c or control lentivirus infection, cells were fixed in cold 70% ethanol and stained with PI. Cell cycle profiles were determined by flow cytometry and analyzed by flowjo.
# [4] = test system: Dicer-Pten DKO mouse cancer cell lines; assay: Cell cycle analysis (PI, flow cytometry) after miR-34c transfection; assay type: cell-based; settings: 48 hours after miR-34c transfection
# Method: as §1
# [5] = test system: Dicer-Pten DKO mouse cancer cell line; assay: QPCR analysis of miR-34c downstream genes after miR-34c mimic transfection; assay type: cell-based
# Source text: In FIG. 14, miR-34c inhibits cyclinE-CDK2 complex. Analysis of some of miR-34c downstream genes is shown. QPCR analysis showing relative quantity of CDK2 (A), CCNE2 (B) and CDKN1C(C) after miR-34c mimic transfection in Dicer-Pten DKO mouse cancer cell line.
# [6] = transient transfection, Dicer-Pten DKO cell lines
compound,measurement,setting,value
C[C@@H]1CC[C@@]2(OC1)O[C@H]1[C@@H](O)[C@H]3[C@@H]4CC[C@H]5C[C@@H](O[C@@H]6O[C@H](CO)[C@H](O[C@@H]7O[C@H](CO)[C@@H](O)[C@H](O[C@@H]8OC[C@@H](O)[C@H](O)[C@H]8O)[C@H]7O[C@@H]7O[C@H](CO)[C@H](O)[C@H](O[C@@H]8O[C@H](CO)[C@@H](O)[C@H](O)[C@H]8O)[C@H]7O)[C@H](O)[C@H]6O)[C@H](O)C[C@]5(C)[C@H]4CC[C@]3(C)[C@H]1[C@@H]2C [Digitonin],cell death,"OVCAR8 cells; 0.8 mg/ml, positive control",~100%
COc1cc(/C=C/C(=O)N2CCC=CC2=O)cc(OC)c1OC [Piperlongumine],cell survival,OVCAR8 cells; concentration of 6.3 mM,10 % of the control
"CO[C@H]1C[C@@H]2CC[C@@H](C)[C@@](O)(O2)C(=O)C(=O)N2CCCC[C@H]2C(=O)O[C@H]([C@H](C)C[C@@H]2CC[C@@H](OCCO)[C@H](OC)C2)CC(=O)[C@H](C)/C=C(\C)[C@@H](O)[C@@H](OC)C(=O)[C@H](C)C[C@H](C)/C=C/C=C/C=C/1C [everolimus, reference compound]","sensitivity of cells (anti-proliferative, secondary to G1 arrest, and pro-apoptotic effects)",[1],exquisitely sensitive
same,sensitivity of the tumors (cell viability),[2],micromolar levels
"miR-34c mimic: mimic of miR-34c, mature sequence AGGCAGUGUAGUUAGCUGAUUGC (SEQ ID NO:2); also delivered by lentivirus (listed as RNA, chemistry not given here)","sensitivity of cells (anti-proliferative, secondary to G1 arrest, and pro-apoptotic effects)",[1],exquisitely sensitive
same,suppression of mouse and human ovarian cancer cell viability among miRNAs tested,[1]; Dicer/Pten serous ovarian cancer model,the only miRNA to suppress
same,cell viability and proliferation after miR-34c mimic delivery,[1],dramatic effect
same,cell viability and proliferation after miR-34c mimic delivery,[1]; listed as miR-34c,reduced cell viability
same,apoptosis,[1]; [6],induction of apoptosis
same,cell growth,[1]; [6],growth inhibitory effect
same,suppression of TOP2A,[3]; by the miR-34c mimic,11.7 fold
same,Fold Change miR-34c mimic: CCNE2,"[3]; gene CCNE2, predicted miR-34c binding site",−4.6
same,Fold Change miR-34c mimic: CDC6,"[3]; gene CDC6, predicted miR-34c binding site",−5.5
same,Fold Change miR-34c mimic: CDCA8,"[3]; gene CDCA8, predicted miR-34c binding site",−9.6
same,Fold Change miR-34c mimic: CDK2,[3]; gene CDK2,−3.4
same,Fold Change miR-34c mimic: CDT1,[3]; gene CDT1,−6.3
same,Fold Change miR-34c mimic: INCENP,[3]; gene INCENP,−4.5
same,Fold Change miR-34c mimic: MCM5,"[3]; gene MCM5, predicted miR-34c binding site",−18.7
same,Fold Change miR-34c mimic: MDM2,[3]; gene MDM2,1.0
same,Fold Change miR-34c mimic: MRVI1,[3]; gene MRVI1,10.2
same,Fold Change miR-34c mimic: PBK,[3]; gene PBK,−5.7
same,Fold Change miR-34c mimic: Survivin,[3]; gene Survivin,−4.8
same,Fold Change miR-34c mimic: TOP2A,[3]; gene TOP2A,−11.7
same,upregulation of MRVI1,[3]; miR-34c mimic,10.2 fold
same,"downregulation of direct targets MCM5, CDC6, CCNE2 and CDCA8",[3]; upon delivery of miR-34c,4.6-18.7 fold
same,cell cycle profile,"OVCAR8; five days after lentivirus infection, OVCAR8",arresting cancer cells in G1 phase
same,cell proliferation,OVCAR8; lentiviral expression of miR-34c in OVCAR8,inhibits cell proliferation
same,cell cycle profile,[4],cell cycle arrest in G1 phase
same,CDK2 relative quantity,[5],down regulating
same,CDKN1C relative quantity,[5],up regulating
same,cyclinE (CCNE2) relative quantity,[5],down regulating
